Results on 6 molecules are retold here after patent publication US8148388B2, “2,4 (4,6) pyrimidine derivatives” (Janssen Pharmaceutica, N.V., priority 2004, dated 2012).

One may read the inhibition as the change of the read-out against control, counted positive when it falls.

Type in all cases: biochemical
One assay has as its target Fms (h) (Homo sapiens, UniProt P07333). In words: Fms human kinase assay (glass-fiber filter). As to conditions: test concentration of 10^−6M; read-out: C7 score (inhibition of Fms human). A digest of the protocol:
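Radiometric filter-binding assay: Fms (5-10 mU) with 250 μM peptide substrate and [γ-33P]ATP in 8 mM MOPS pH 7.0, 10 mM Mg acetate, 40 min at room temperature. Reaction stopped with phosphoric acid; substrate-bound 33P counted on P30 filtermat.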

The target of the next assay is Lyn (h) (Homo sapiens, UniProt P07948). In words: Lyn human kinase assay (glass-fiber filter). Particulars: test concentration of 10^−6M; for inhibition at 1 µM: read-out: C10 score (inhibition of Lyn human). As for the experimental part: (§1) In the glass-fiber filter technology the activity of the kinase of interest is measured using an appropriate substrate that is incubated with the aforementioned kinase protein in the presence of (^33P) radiolabeled ATP. (^33P) Phosphorylation of the substrate is subsequently measured as radioactivity bound on a glass fiber-filter.
(§2) All kinases are pre-diluted to a 10× working concentration prior to addition into the assay. The composition of the dilution buffer for each kinase is detailed below.
(§3) In a final reaction volume of 25 Lyn (h) (5-10 mU) is incubated with 50 mM Tris pH 7.5, 0.1 mM EGTA, 0.1 mM Na3VO4, 0.1% O-mercaptoethanol, 0.1 mg/ml poly(Glu, Tyr) 4:1, 10 mM MgAcetate and [γ-^33P-ATP] (specific activity approx. 500 cpm/pmol, concentration as required). The reaction is initiated by the addition of the MgATP mix. After incubation for 40 minutes at room temperature, the reaction is stopped by the addition of 5 μl of a 3% phosphoric acid solution. 10 μl of the reaction is then spotted onto a Filtennat A and washed three times for 5 minutes in 75 mM phosphoric acid and once in methanol prior to drying and scintillation counting.

The target in another assay is Flt3 (h) (Homo sapiens, UniProt P36888). In words: Flt3 human kinase assay (glass-fiber filter). Particulars: test concentration of 10^−6M; for inhibition at 1 µM: read-out: C6 score (inhibition of Flt3 human). A digest of the protocol: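 Human Flt3 (5-10 mU) with 50 μM peptide substrate in 8 mM MOPS pH 7.0, 0.2 mM EDTA, 10 mM Mg acetate and [γ-33P]ATP (concentration as required), 40 min at room temperature. Reaction stopped with phosphoric acid; substrate 33P incorporation counted on P30 glass-fiber filter.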
Sequence of Flt3 (h) (P36888 27-993): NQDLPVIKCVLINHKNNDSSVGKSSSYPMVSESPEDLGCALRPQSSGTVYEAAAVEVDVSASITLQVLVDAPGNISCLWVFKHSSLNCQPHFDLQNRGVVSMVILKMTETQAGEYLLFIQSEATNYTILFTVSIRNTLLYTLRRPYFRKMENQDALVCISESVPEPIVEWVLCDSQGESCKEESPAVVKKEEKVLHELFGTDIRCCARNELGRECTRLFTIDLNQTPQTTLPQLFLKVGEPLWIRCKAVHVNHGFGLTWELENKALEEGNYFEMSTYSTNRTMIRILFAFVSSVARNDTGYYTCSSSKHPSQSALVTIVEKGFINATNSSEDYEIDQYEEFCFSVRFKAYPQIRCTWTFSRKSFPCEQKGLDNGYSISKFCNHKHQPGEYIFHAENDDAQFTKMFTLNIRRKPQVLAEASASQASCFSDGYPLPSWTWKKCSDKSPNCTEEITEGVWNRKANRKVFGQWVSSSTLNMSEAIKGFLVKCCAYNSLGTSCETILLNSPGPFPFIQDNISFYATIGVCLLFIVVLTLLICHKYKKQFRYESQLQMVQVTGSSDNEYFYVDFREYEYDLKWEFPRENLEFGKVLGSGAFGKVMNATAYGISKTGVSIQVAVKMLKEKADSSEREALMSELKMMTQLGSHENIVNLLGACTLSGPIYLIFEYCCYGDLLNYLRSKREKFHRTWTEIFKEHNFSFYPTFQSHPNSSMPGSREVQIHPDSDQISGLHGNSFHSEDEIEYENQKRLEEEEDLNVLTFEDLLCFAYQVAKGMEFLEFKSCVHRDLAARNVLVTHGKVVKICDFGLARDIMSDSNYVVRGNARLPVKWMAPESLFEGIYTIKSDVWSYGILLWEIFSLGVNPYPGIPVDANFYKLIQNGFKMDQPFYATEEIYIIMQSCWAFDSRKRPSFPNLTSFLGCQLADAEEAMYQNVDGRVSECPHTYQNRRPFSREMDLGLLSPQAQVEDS

The target in another assay is CSK (h) (Homo sapiens, UniProt P41240). Briefly: CSK human kinase assay (glass-fiber filter). Particulars: test concentration of 10^−6M; read-out: C2 score (inhibition of CSK human). As for the experimental part:
as §1, §2
as §3, with “μl, CSK” for “Lyn”, “β-mercaptoethanol,” for “O-mercaptoethanol,”, “4:1, 10 mM MnCl2,” for “4:1,”, “Filtermat” for “Filtennat”

The target in another assay is GSK3B (h) (Homo sapiens, UniProt P49841). Briefly: GSK3β human kinase assay (glass-fiber filter). Particulars: test concentration of 10^−6M; for inhibition at 1 µM: read-out: C8 score (inhibition of GSK3β human). As for the experimental part: The in vitro inhibition of a panel of kinases was assessed using either the glass-fiber filter technology as described by Davies, S. P. et al., Biochem J. (2000), 351; p. 95-105.
Sequence of GSK3B (h) (P49841 whole entry): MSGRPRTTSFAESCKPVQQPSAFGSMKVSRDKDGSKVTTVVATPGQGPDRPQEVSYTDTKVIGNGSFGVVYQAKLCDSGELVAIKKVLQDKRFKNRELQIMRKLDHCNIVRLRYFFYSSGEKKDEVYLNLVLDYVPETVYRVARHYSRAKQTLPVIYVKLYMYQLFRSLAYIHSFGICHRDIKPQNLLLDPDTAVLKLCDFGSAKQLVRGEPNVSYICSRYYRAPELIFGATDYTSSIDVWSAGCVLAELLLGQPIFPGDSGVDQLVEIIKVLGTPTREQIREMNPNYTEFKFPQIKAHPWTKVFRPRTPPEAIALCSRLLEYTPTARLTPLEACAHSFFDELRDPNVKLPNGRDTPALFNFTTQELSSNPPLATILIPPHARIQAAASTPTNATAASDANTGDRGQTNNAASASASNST
as §1, §2
In a final reaction volume of 25 μl, GSK3B (h) (5-10 mU) is incubated with 8 mM MOPS pH 7.0, 0.2 mM EDTA, 20 μM […](p)EDEEE (phospho GS2 peptide), 10 mM MgAcetate and [γ-^33P-ATP] (specific activity approx. 500 cpm/pmol, concentration as required). The reaction is initiated by the addition of the MgATP mix. After incubation for 40 minutes at room temperature, the reaction is stopped by the addition of 5 μl of a 3% phosphoric acid solution. 10 μl of the reaction is then spotted onto a P30 filtermat and washed three times for 5 minutes in 50 mM phosphoric acid and once in methanol prior to drying and scintillation counting.

The next assay addresses cSRC (h) (Homo sapiens, UniProt P12931). In words: cSRC human kinase assay (glass-fiber filter). Particulars: test concentration of 10^−6M; for inhibition at 1 µM: read-out: C3 score (inhibition of cSRC human). The method in brief:
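Radiometric assay: kinase and substrate are incubated with [33P]ATP, with the reaction started by MgATP mix. The reaction is spotted on P30 filtermat, washed in 75 mM phosphoric acid and methanol, and the bound 33P is measured by scintillation counting.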

The next assay addresses Yes (h) (Homo sapiens, UniProt P07947). Briefly: Yes human kinase assay (glass-fiber filter). Particulars: test concentration of 10^−6M; for inhibition at 1 µM: read-out: C11 score (inhibition of Yes human). A digest of the protocol: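 Yes (h) (5-10 mU) with 0.1 mg/ml poly(Glu, Tyr) 4:1 in 8 mM MOPS pH 7.0, 0.2 mM EDTA, 10 mM MgAcetate and [γ-^33P-ATP], 40 minutes at room temperature. Stopped with phosphoric acid; substrate-bound ^33P counted on glass-fiber filter by scintillation.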

Another assay addresses Fes (h) (Homo sapiens, UniProt P07332). In words: Fes human kinase assay (glass-fiber filter). Particulars: test concentration of 10^−6M; for inhibition at 1 µM: read-out: C4 score (inhibition of Fes human). As for the experimental part: as §1, §2
as §3, with “25 μl, Fes” for “25 Lyn”, “with 8” for “with 50”, “mM MOPS” for “mM Tris”, “pH 7.0, 0.2” for “pH 7.5, 0.1”, “mM EDTA,” for “mM EGTA, 0.1 mM Na3VO4, 0.1% O-mercaptoethanol,”, “a Filtermat” for “a Filtennat”

The target in another assay is EGFR (h) (Homo sapiens, UniProt P00533). Briefly: EGFR human kinase assay (glass-fiber filter). As to conditions: test concentration of 10^−6M; for inhibition at 1 µM: read-out: C4 score (inhibition of EGFR human). As for the experimental part:
as §1, §2
In a final reaction volume of 25 μl, EGFR (h) (5-10 mU) is incubated with 8 mM MOPS pH 7.0, 0.2 mM EDTA, 10 mM MnCl2, 0.1 mg/ml poly(Glu, Tyr) 4:1, 10 mM MgAcetate and [γ-^33P-ATP] (specific activity approx. 500 cpm/pmol, concentration as required). The reaction is initiated by the addition of the MgATP mix. After incubation for 40 minutes at room temperature, the reaction is stopped by the addition of 5 μl of a 3% phosphoric acid solution. 10 μl of the reaction is then spotted onto a Filtermat A and washed three times for 5 minutes in 75 mM phosphoric acid and once in methanol prior to drying and scintillation counting.

The target of another assay is Lck (h) (Homo sapiens, UniProt P06239). Briefly: Lck human kinase assay (glass-fiber filter). As to conditions: test concentration of 10^−6M; for inhibition at 1 µM: read-out: C9 score (inhibition of Lck human). A digest of the protocol: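 Kinase activity measured as transfer of (^33P) from radiolabeled MgATP to substrate, captured on P30 glass-fiber filtermat, washed in 75 mM phosphoric acid and methanol, then scintillation counted.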

Another assay concerns the target Abl (h) (Homo sapiens, UniProt P00519). Briefly: Abl human kinase assay (glass-fiber filter). Particulars: test concentration of 10^−6M; for inhibition at 1 µM: read-out: C1 score (inhibition of Abl human). As for the experimental part: as §1, §2
(specific activity approx. 500 cpm/pmol, concentration as required). The reaction is initiated by the addition of the MgATP mix. After incubation for 40 minutes at room temperature, the reaction is stopped by the addition of 5 μl of a 3% phosphoric acid solution. 10 μl of the reaction is then spotted onto a P30 filtermat and washed three times for 5 minutes in 75 mM phosphoric acid and once in methanol prior to drying and scintillation counting.

Sequence of Fes (h) (P07332 whole entry): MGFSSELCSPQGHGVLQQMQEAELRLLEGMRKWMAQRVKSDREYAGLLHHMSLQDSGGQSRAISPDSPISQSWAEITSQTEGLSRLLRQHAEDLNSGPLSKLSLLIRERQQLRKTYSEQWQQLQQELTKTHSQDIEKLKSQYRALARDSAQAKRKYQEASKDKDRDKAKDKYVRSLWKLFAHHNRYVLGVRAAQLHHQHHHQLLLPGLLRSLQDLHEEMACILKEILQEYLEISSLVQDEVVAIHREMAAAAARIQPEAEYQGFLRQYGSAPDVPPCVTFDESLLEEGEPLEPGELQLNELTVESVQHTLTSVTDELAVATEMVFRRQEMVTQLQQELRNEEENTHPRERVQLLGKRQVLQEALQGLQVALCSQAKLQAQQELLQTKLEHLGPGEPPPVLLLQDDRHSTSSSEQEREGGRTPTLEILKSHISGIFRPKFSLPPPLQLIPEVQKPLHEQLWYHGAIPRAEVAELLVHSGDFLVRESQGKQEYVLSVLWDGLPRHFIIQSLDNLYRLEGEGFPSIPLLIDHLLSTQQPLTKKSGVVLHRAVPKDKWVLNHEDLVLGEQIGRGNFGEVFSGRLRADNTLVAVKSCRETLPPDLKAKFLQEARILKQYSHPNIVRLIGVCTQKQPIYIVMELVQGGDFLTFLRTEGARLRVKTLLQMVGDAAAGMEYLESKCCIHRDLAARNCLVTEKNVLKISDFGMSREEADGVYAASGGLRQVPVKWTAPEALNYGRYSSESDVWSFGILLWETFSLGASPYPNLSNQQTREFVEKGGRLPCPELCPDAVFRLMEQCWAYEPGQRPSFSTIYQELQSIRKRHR
Sequence of Yes (h) (P07947 whole entry): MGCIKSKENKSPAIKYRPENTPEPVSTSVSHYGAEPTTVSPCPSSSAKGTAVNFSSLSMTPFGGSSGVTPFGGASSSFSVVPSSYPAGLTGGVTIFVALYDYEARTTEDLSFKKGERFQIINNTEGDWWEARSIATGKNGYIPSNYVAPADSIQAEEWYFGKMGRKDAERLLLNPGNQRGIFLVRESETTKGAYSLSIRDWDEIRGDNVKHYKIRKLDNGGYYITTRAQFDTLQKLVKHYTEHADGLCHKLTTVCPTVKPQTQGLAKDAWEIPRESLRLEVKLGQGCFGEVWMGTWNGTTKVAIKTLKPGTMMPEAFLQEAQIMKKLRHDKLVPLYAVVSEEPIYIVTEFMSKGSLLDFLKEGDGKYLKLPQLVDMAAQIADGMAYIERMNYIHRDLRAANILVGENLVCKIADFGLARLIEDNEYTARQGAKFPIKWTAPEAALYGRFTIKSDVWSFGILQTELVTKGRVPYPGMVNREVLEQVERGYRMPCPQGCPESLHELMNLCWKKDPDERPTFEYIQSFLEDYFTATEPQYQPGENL
Sequence of Abl (h) (P00519 whole entry): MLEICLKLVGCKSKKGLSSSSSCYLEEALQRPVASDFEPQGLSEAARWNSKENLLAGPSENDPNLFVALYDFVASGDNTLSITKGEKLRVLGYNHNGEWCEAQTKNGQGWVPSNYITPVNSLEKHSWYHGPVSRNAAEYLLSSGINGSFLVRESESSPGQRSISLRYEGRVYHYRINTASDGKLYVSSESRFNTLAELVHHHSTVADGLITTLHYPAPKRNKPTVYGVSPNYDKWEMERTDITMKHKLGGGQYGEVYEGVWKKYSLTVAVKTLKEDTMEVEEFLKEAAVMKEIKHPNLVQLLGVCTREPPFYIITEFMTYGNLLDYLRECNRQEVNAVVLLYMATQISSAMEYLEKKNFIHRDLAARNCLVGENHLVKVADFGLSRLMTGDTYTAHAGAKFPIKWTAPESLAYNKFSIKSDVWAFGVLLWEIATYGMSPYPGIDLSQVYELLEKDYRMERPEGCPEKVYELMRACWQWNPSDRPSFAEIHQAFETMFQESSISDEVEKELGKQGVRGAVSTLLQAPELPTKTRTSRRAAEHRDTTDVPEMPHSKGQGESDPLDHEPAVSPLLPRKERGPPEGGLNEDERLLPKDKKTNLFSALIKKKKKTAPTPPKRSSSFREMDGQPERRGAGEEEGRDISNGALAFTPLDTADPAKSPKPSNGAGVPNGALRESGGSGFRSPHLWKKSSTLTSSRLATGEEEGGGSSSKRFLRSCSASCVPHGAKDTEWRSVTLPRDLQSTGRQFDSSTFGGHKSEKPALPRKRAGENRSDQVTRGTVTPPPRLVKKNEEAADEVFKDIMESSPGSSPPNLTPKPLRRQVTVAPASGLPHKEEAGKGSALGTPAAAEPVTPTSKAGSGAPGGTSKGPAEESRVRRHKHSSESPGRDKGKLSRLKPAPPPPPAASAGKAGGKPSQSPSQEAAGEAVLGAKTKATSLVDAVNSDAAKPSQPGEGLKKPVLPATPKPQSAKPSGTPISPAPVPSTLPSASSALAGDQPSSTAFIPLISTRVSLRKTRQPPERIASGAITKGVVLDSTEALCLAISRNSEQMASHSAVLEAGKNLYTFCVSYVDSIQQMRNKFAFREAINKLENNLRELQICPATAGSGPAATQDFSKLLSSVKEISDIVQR
Sequence of Fms (h) (P07333 20-972): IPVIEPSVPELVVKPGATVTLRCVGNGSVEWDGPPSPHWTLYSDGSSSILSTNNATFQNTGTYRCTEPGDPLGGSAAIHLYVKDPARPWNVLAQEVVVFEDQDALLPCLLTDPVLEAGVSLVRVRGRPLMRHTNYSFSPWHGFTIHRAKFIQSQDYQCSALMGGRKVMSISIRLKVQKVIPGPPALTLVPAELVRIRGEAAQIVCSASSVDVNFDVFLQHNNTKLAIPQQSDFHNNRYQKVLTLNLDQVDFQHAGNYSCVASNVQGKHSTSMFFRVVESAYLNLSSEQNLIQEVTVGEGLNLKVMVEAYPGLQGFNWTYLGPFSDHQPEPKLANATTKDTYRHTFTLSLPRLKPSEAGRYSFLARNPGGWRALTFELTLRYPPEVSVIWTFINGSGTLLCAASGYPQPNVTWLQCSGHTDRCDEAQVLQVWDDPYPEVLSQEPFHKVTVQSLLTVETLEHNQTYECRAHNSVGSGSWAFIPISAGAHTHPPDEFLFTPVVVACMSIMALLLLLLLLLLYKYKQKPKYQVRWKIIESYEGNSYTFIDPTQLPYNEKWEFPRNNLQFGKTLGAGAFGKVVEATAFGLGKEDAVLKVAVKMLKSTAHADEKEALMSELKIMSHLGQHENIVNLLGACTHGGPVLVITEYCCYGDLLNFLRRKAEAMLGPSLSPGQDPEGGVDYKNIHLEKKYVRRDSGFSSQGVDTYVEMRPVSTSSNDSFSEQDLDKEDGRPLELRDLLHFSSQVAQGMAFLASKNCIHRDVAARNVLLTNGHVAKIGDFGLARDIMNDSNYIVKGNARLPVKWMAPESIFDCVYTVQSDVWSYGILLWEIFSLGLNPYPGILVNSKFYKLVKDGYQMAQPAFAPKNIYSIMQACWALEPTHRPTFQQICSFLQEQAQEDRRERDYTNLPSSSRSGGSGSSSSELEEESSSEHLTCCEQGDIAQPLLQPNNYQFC

As for `O=C1CCCCNC(=O)c2cccc(c2)Nc2cc(ncn2)Nc2cccc(c2)CN1` [Compound 58, 2,4,6,8,15,21-hexaazatetracyclo[21.3.1.1~3,7~.1~9,13~]nonacosa-1(27),3,5,7(29),9,11,13(28),23,25-nonaene-14,20-dione], the inhibition at 1 µM was 30 to 60% on Fms (h), 10 to 30% on Lyn (h), 10 to 30% on Flt3 (h) and 60 to 80% on CSK (h).

Take `COc1ccc2cc1OCCCNC(=O)[C@@H]1CCCN1Cc1cc(F)c(Cl)cc1Nc1nc(ncc1C#N)N2` [Compound 6, 21,17-metheno-15,11-nitrilo-1H,16H-pyrrolo[2,1-s][13,1,5,7,17,20]benzoxapentaazacyclotricosine-12-carbonitrile, 8-chloro-7-fluoro-2,3,5,10,23,24,25,26,27,27a-decahydro-20-methoxy-27-oxo-, (27aS)-]: the “C8 score (inhibition of GSK3β human)” value at GSK3B (h) is on record as 2 (Score 2=30-60% inhibition). Besides, at cSRC (h), the “C3 score (inhibition of cSRC human)” value is listed as 1 (Score 1=10-30% inhibition). The “C11 score (inhibition of Yes human)” value at Yes (h) is reported as 2 (Score 2=30-60% inhibition). In addition, the “C4 score (inhibition of Fes human)” value on Fes (h) is on record as 1 (Score 1=10-30% inhibition). Moreover, the “C4 score (inhibition of EGFR human)” value on EGFR (h) is reported as 1 (Score 1=10-30% inhibition). Besides, the “C10 score (inhibition of Lyn human)” value at Lyn (h) is on record as 1 (Score 1=10-30% inhibition). Also, the “C9 score (inhibition of Lck human)” value on Lck (h) is 2 (Score 2=30-60% inhibition). Besides, at Flt3 (h), the “C6 score (inhibition of Flt3 human)” value is reported as 2 (Score 2=30-60% inhibition).

Take “1H,7H-12,8-metheno-6,2-nitrilo-13,1,5,7,17,20-benzoxapentaazacyclotricosine-3-carbonitrile, 24-chloro-14,15,16,17,18,19,20,21-octahydro-11-methoxy-20-methyl-18-oxo- [Compound 33]”: the “C8 score (inhibition of GSK3β human)” value on GSK3B (h) is given as 2 (Score 2=30-60% inhibition). Also, on cSRC (h), the “C3 score (inhibition of cSRC human)” value is reported as 4 (Score 4=>80% inhibition). For the same molecule, the “C11 score (inhibition of Yes human)” value on Yes (h) is recorded as 4 (Score 4=>80% inhibition). The “C4 score (inhibition of Fes human)” value at Fes (h) is listed as 2 (Score 2=30-60% inhibition). On EGFR (h), the “C4 score (inhibition of EGFR human)” value was 3 (Score 3=60-80% inhibition). Further, the “C10 score (inhibition of Lyn human)” value at Lyn (h) is 4 (Score 4=>80% inhibition). The “C9 score (inhibition of Lck human)” value on Lck (h) was 3 (Score 3=60-80% inhibition). Further, at Abl (h), the “C1 score (inhibition of Abl human)” value was 3 (Score 3=60-80% inhibition). In addition, the “C6 score (inhibition of Flt3 human)” value at Flt3 (h) is 4 (Score 4=>80% inhibition).

Regarding `O=C1NCCCCCOc2cccc(c2)Nc2ccnc(n2)Nc2cccc1c2` [Compound 22, 14-oxa-2,4,8,20,28-pentaazatetracyclo[20.3.1.1~3,7~.1~9,13~]octacosa-1(26),3,5,7(28),9,11,13(27),22,24-nonaen-21-one], the inhibition at 1 µM on cSRC (h), on Yes (h), at Fms (h), on Fes (h), at Lyn (h) and on Lck (h) was 10 to 30% each time. In addition, the inhibition at 1 µM on Abl (h) lay in the range of 10 to 30%; on Flt3 (h), 30 to 60%; at CSK (h), 10 to 30%.

Take `N#Cc1cnc2nc1Nc1cccc(c1)OCC(=O)NCCOc1cccc(c1)N2` [Compound 27, 14,20-dioxa-2,4,8,17,27-pentaazatetracyclo[19.3.1.1~3,7~.1~9,13~]heptacosa-1(25),3,5,7(27),9,11,13(26),21,23-nonaene-6-carbonitrile, 16-oxo-]: the inhibition at 1 µM at GSK3B (h) fell in the range of 30 to 60%; on Yes (h), 10 to 30%; at Fms (h), 30 to 60%; on Fes (h), 10 to 30%; on EGFR (h) it was 10 to 30%; at Lyn (h), 10 to 30%. The inhibition at 1 µM on Lck (h) was 30 to 60%; at Abl (h), 10 to 30%; on Flt3 (h), 60 to 80%.

On to `N#Cc1cnc2nc1Nc1cccc(c1)OCCNC(=O)c1cccc(c1)N2` [Compound 20, 14-oxa-2,4,8,17,25-pentaazatetracyclo[17.3.1.1~3,7~.1~9,13~]pentacosa-1(23),3,5,7(25),9,11,13(24),19,21-nonaene-6-carbonitrile, 18-oxo-], for which the inhibition at 1 µM on GSK3B (h) is 60 to 80%; on cSRC (h), 10 to 30%; on Yes (h), 10 to 30%; at Fms (h), 10 to 30%; at Fes (h), 10 to 30%; on EGFR (h), 10 to 30%. The inhibition at 1 µM fell in the range of 10 to 30% at Abl (h) and 30 to 60% at Flt3 (h).
